Data on 1 substance can be found in patent publication US20120148718A1, “METHOD FOR CONDITIONING ANIMAL FEED” (priority 2009, published 2012).

The nature of the series: Surface tension of 5% solutions in water (Fisher Surface Tensiomat Model 21). It counts as physicochemical. The note with it: surfactants, Table 2. The procedure:
The surface tensions of various organic acids and different formulations of the present invention were determined. Solutions were diluted to 5% in water and tested using a Fisher Surface Tensiomat Model 21.
Polysorbate-80 is allowed only for use in milk replacers and not for feed application. In the European Union ethoxylated castor oil surfactant is allowed for use in all animals. In order to determine a suitable surfactant to replace polysorbate-80, the surface tensions of different PEG ethoxylated castor oil surfactants were tested in 5% solutions.
The two best formulations from Example 1 were prepared using polysorbate-80 or castor oil PEG-60. The surface tension of 5% solutions of each formulation in water was determined.

For the substance Polysorbate-80, the “Surface Tension” value was determined as 40.57 dynes/cm.
